The target of the experiment is T1, CCN′ ([K63G,K131G,K133A]-CCN, degradation-suppressed cocoonase) (Bombyx mori, UniProt A7TVD3, K85G/K153G/K155A).
T1 construct: mature enzyme, propeptide removed (precursors carried K8D or K8D/E10D/E11D in the propeptide)
Briefly: BAEE hydrolysis assay. Format: biochemical. To be noted: assay conditions not described.

T1 sequence (A7TVD3 entry or part of it K85G/K153G/K155A): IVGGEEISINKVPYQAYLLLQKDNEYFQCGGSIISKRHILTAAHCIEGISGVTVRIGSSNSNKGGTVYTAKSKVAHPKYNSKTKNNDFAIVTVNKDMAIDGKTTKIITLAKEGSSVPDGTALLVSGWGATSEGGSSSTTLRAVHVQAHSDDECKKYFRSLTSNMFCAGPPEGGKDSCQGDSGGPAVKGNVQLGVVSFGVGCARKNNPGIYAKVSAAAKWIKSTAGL

Consider `CCOC(=O)[C@H](CCCNC(=N)N)NC(=O)c1ccccc1` [BAEE], for which the Km was found to be 372 µM.
